According to publication PMC10107836 (Chembiochem, 2022):
pIC50, pKd: −log10 of the molar value. Values joined by “and” are separate entries in the source; they are usually repeats but may differ in a detail not shown here. Identical values can stand only once.

Columns and labels:
AcmJRL [1] = molecular target: T1, AcmJRL (Ananas comosus, UniProt Q53J09); assay type: binding; settings: for RFU: FITC‐labelled AcmJRL at 50 μg mL^−1, average RFU±s.d. from 6 replicates
T1 sequence (Q53J09 1-145): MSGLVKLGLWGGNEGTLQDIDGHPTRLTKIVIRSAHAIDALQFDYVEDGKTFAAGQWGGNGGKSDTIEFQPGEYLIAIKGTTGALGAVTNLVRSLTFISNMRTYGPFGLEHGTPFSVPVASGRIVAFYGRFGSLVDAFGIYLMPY

AcmJRL [2] = molecular target: T1, AcmJRL; assay: Reporter ligand displacement assay; assay type: binding; settings: carbohydrate at 10 mM
[3] = system: AcmJRL−S‐protein interaction; assay type: binding, SARS‐CoV‐2
AcmJRL [4] = molecular target: T2, AcmJRL (Ananas comosus, UniProt Q53J09); assay type: biochemical; settings: SD, n = 3
T2 sequence (Q53J09 2-145): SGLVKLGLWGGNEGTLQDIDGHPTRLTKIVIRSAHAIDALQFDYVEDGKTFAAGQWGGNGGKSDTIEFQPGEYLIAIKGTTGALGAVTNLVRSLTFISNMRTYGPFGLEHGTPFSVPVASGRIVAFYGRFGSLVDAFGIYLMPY

AcmJRL [5] = molecular target: T1, AcmJRL; assay: Semiotik glycan array with Cy3-labelled AcmJRL; assay type: binding
[6] = molecular target: SARS-CoV-2 spike RBD (SARS-CoV-2) (UniProt P0DTC2); assay: SPR
[7] = molecular target: human angiotensin-converting-enzyme-2 (ACE2) receptor, recombinant (human) (UniProt Q9BYF1); assay: SPR
Chain of human angiotensin-converting-enzyme-2 (ACE2) receptor, recombinant (human) (Q9BYF1 18-740): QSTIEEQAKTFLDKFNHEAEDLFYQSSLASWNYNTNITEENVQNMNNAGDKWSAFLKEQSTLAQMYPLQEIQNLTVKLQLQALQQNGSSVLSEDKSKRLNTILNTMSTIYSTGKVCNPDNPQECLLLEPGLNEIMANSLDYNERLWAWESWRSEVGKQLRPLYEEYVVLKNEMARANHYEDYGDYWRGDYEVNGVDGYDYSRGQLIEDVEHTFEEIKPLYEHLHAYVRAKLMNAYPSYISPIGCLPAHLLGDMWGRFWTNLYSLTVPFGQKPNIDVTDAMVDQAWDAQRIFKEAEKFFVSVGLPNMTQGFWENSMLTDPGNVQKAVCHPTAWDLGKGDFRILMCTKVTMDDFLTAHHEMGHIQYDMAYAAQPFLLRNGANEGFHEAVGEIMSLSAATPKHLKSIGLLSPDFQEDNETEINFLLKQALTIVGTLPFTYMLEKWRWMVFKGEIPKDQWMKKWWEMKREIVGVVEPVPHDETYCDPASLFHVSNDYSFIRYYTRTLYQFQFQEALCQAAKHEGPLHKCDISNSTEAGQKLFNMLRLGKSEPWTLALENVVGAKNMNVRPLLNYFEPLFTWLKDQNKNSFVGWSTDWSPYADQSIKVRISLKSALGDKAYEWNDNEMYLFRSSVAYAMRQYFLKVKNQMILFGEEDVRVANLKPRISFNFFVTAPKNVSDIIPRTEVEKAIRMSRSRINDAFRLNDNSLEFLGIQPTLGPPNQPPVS

## OC[C@H]1O[C@H](O[C@H]2[C@H](O)[C@@H](O)[C@H](O)O[C@@H]2CO)[C@H](O)[C@@H](O)[C@@H]1O [CFG‐GLYCAN ID 195, Glc‐α‐1,4‐Glc‐β]
AcmJRL [1]
  RFU: 33±5 RFU

## CC(=O)N[C@@H]1[C@@H](O)[C@H](O)[C@@H](CO)O[C@H]1O [D-GlcNAc, N‐acetylglucosamine]
AcmJRL [2]
  inhibition of AcmJRL, single concentration (in words): confirmed as ligands

## OC[C@H]1O[C@@H](O[C@H]2[C@H](O)[C@@H](O)[C@H](O)O[C@@H]2CO)[C@H](O)[C@@H](O)[C@H]1O [D‐lactose, Gal‐β‐1,4Glc]
[3]
  effect on AcmJRL binding to S-protein (in words): did not interfere

## OC[C@H]1O[C@H](OC[C@H]2O[C@H](O[C@]3(CO)O[C@H](CO)[C@@H](O)[C@@H]3O)[C@H](O)[C@@H](O)[C@@H]2O)[C@H](O)[C@@H](O)[C@H]1O [D‐raffinose, Gal‐α‐1,6Glc‐α‐1,2Fruc]
[3]
  effect on AcmJRL binding to S-protein (in words): did not interfere

## CO[C@H]1O[C@H](CO)[C@@H](O)[C@H](O)[C@@H]1O [Me-α-D-Man, methyl α-D-mannopyranoside]
AcmJRL [4]
  pIC50: 1.97

## O=C[C@H](O)[C@@H](O)[C@H](O[C@@H]1O[C@H](CO)[C@@H](O)[C@H](O)[C@H]1O)[C@H](O)CO [cellobiose, Glc‐β‐1,4‐Glc]
AcmJRL [2]
  inhibition of AcmJRL, single concentration (in words): had no effect

## N[C@H]1C(O)O[C@H](CO)[C@@H](O)[C@@H]1O (some centres unmarked) [glucosamine]
AcmJRL [2]
  inhibition of AcmJRL, single concentration (in words): confirmed as ligands

## OC[C@H]1O[C@H](O[C@H]2[C@H](O)[C@@H](O)[C@H](O)O[C@@H]2CO)[C@H](O)[C@@H](O)[C@@H]1O [maltobiose, Glc‐α‐1,4‐Glc]
AcmJRL [2]
  inhibition of AcmJRL, single concentration (in words): showed highest inhibition

## -3GalNAcβ1-4(L6dTalα1-3)Manα1-3L6dTalα1- [A. hydrophila O34deAc]
AcmJRL [5]
  binding on Semiotik glycan array (in words): recognised

## -6Manα1- [Mannan]
AcmJRL [5]
  binding on Semiotik glycan array (in words): confirmed as a ligand

## -8(D-Ala1-7)Leg5Acα2-4GlcAβ1-3GlcNAcβ1- [E. coli O161]
AcmJRL [5]
  binding on Semiotik glycan array (in words): recognised

## Manα1-6(Manα1-3)Manβ-sp4 [(Ma)3b]
AcmJRL [5]
  binding on Semiotik glycan array (in words): showed no binding

## Man‐α‐1,6(Man‐α‐1,3)Man‐α‐1,6(Man‐α‐1,3)Man‐β [CFG‐GLYCAN ID 310]
AcmJRL [1]
  RFU: 410±141 RFU
AcmJRL [1]; FITC‐labelled AcmJRL, 5 and 50 μg mL^−1
  binding response on CFG glycan array (in words): highest binding responses

## pineapple-derived jacalin-related lectin AcmJRL (natural protein)
[6]
  pKd: 4.89 and 4.46
  koff: 0.0194 s⁻¹
  kon: 1490 M⁻¹ s⁻¹
[7]
  pKd: 4.66
  koff: 0.0122 s⁻¹
  kon: 590 M⁻¹ s⁻¹
